{
  "source": "patent US20070077258A1",
  "about": "(priority 2005, published 2007)",
  "origin": "cited, not measured here",
  "key": {"[1]": {"tested_on": "influenza virus in Madin-Darby Canine Kidney (MDCK) Cells"}, "[2]": {"tested_on": "influenza virus in Normal Human Small Airway Epithelial Cells (SAEC)"}, "[3]": {"details": "3 grams of glutathione by oral ingestion"}},
  "note": "Like-named read-outs stand apart in the source and are kept apart here.",
  "data": [
    {"smiles": "N[C@@H](CCC(=O)N[C@@H](CS)C(=O)NCC(=O)O)C(=O)O", "note": "[glutathione, gamma-glutamyl-cysteinyl-glycine]", "values": [
      {"measurement": "replication of flu virus", "setting": "[1]", "value": "prevention of replication of flu virus was demonstrated"},
      {"measurement": "tolerability", "setting": "1500 mg /m2", "value": "well tolerated"},
      {"measurement": "tolerability", "setting": "2500 mg daily for 5 days", "value": "well tolerated"},
      {"measurement": "toxicity reported", "setting": "in vivo", "value": "No toxicity"},
      {"measurement": "replication of flu virus", "setting": "[2]", "value": "prevention of replication of flu virus was demonstrated"},
      {"measurement": "effect on plasma glutathione levels", "setting": "[3]", "value": "does not elevate plasma glutathione levels"}
    ]}
  ]
}
